Results from patent US10786429B2, “Preservative removal from eye drops” (University of Florida Research Foundation, Inc., priority 2016, dated 2020).
Counter-ions that a name gives are not always drawn. Marks after values point to notes of the source that are not given here.

How the values were obtained:
Assay type in all cases: physicochemical
[1] = Partition coefficient in macroporous pHEMA hydrogel; settings: for Partition coefficient: 250 mg gel in 12 mL PBS solution, 15 days, mean ± SD, n=3
Method: As indicated above, the absorption percentage of hydrophilic drug is small, whereas a significant amount of hydrophobic drug is uptake by the macroporous pHEMA gel. The high affinity of hydrophobic drug to the gel can be determined by measuring the partition coefficient of the drug in the gel. To measure the partition coefficient, a piece of macroporous pHEMA gel of 250 mg was soaked in 12 mL of drug or BAK solution. After 15 days of soaking, the concentration of the drug or BAK solution was measured by using UV-Vis spectrophotometry. The drug or BAK concentration after soaking indicated the amount of drug or BAK in reference to the initial concentration is that absorbed into the gel. The partition coefficient of timolol and dorzolamide in macroporous pHEMA gel is roughly 15 times smaller than that of BAK, which is excellent separation efficiency. In contrast, the partition coefficients of latanoprost and BAK are pretty high and the separation efficiency of the gel for this mixture is poor.

[2] = Partition coefficient in pHEMA particles prepared using SR9035 as cross-linker; settings: 100 mg particles in 3.5 mL solution, 9 days
Method: The partition coefficients of timolol, CMC and BAK in pHEMA particles prepared using SR9035 as cross-linker was measured. pHEMA particles (100 mg) were soaked in 3.5 mL of timolol, CMC and BAK solution, which concentration was 0.08 mg/mL, 0.5% and 2.4 mg/mL, respectively. After 9 days of soaking, the concentration of the drug or BAK solution was measured by using UV-Vis spectrophotometry. The drug or BAK concentration after soaking indicated the amount of drug or BAK that absorbed into the gel relative to the initial concentration. The partition coefficient of timolol and CMC in pHEMA particles is much smaller than that of BAK, and should have excellent separation efficiency.

[3] = Langmuir adsorption isotherm fit of equilibrium interfacial surface tension of BAK solutions; settings: Langmuir model fit
Method: An eye drop bottle's plug (tip) was packed with 0.1 g of p-HEMA particles for Timolol Maleate commercial formulation (Sandoz Inc.) and 0.1 g of p-HEMA/MAA particles for Bimatoprost commercial formation (Allegran Inc.). Approximately 0.5 mL of commercial formulation was dosed from the eye drop bottle for each measurement with 0.5 mL of a filtered formulation withdrawn by a standard 3 mL syringe for pendant drop measurements. A drop shape analysis was conducted by the Tensiometer to extract surface tension data of the filtered formulation. A calibration curve with equilibrium interfacial surface tension data as a function of BAK concentration was used to estimate concentrations and fractional BAK removal from the filtered eye drop formulation. Periodic surface tension measurements of the formulations were done to monitor fractional BAK removal.
The steady state Langmuir adsorption isotherm model and Langmuir surface equation of state were used to fit the equilibrium interfacial surface tension data are given below:
[formula] [formula] Where a least square error minimization protocol was used to fit the experimental equilibrium surface tension values and the calculated estimates using the above model. […] Benzalkonium Chloride Removal from Commercial Bimatoprost Formulation (Allegran Inc.)

[4] = Partition coefficient in HEMA/MAA copolymer gels of various compositions
Method: Gels of […] were synthesized using 2 mL monomer solution, 2.7 mL of water, 10 μL of ethylene glycol dimethacrylate as crosslinker, and 6 mg of Darocur TPO as a photoinitiator. The monomer solution had different fractions of HEMA and MAA (i.e. 60% MAA would be 1.2 mL MAA and 0.8 mL HEMA). Gels were cured under UV light in 100 micron thick molds and subsequently cut into pieces approximately 50 mg in mass. Some gels were loaded with BAK to give a 3× (or 300 ppm) initial concentration and placed into 3 mL solution (either 0.025% Bimatoprost/PBS 1× or 0.2% BAK/PBS). The concentrations in solution were measured using UV-vis spectrophotometry. Upon achieving equilibrium, the gels were placed in 3 mL blank PBS, and release was monitored by UV-vis spectrophotometry. Uptake and release equilibrium concentrations were used to calculate partition coefficients. FIGS. 28 and 29 are plots of the partition coefficient for Bimatoprost and BAK for various gel copolymer compositions.

[5] = Partition coefficient of BAK in pHEMA particles prepared by heat-initiated polymerization
[6] = Partition and adsorption into pHEMA matrix (general statement)

| Molecule | partition coefficient, times smaller than that of BAK [1] | Partition coefficient [1] | Partition coefficient [2] | partitioning between gel and solution (in words) [4] | other results |
| --- | --- | --- | --- | --- | --- |
| C[C@@H]1C[C@H]2[C@@H]3CCC4=CC(=O)C=C[C@]4(C)[C@@]3(F)[C@@H](O)C[C@]2(C)[C@@]1(O)C(=O)CO [Dexamethasone, dexamethasone] |  | 33.53 ± 1.31 |  |  |  |
| Benzalkonium Chloride [BAK] |  |  | ~300 | strongly partitions into the gel | maximum surface coverage Γ∞ (fit parameter) [3]: 0.003309 mol/m^2; ratio of kinetic rate constants β/α (fit parameter) [3]: 462.14 m^3/mol; Partition coefficient [5]: 200-250; adsorption time on pHEMA ([6]; compared with transit time): < 3 s; partition coefficient into pHEMA matrix ([6]; depends on BAK concentration and structure of pHEMA matrix): 100-500 |
| CCNC(=O)CCC/C=C\C[C@@H]1[C@@H](/C=C/[C@@H](O)CCc2ccccc2)[C@H](O)C[C@@H]1O [Bimatoprost] |  |  |  | tends to remain in solution |  |

More lines, main results first:

| partition coefficient, times smaller than that of BAK [1] | Partition coefficient [1] | Molecule | Partition coefficient [2] | partitioning between gel and solution (in words) [4] | other results |
| --- | --- | --- | --- | --- | --- |
| roughly 15 times | 7.59 ± 0.56 | CCN[C@H]1C[C@H](C)S(=O)(=O)c2sc(S(N)(=O)=O)cc21 [Dorzolamide, dorzolamide hydrochloride] |  |  |  |
| roughly 15 times | 6.49 | CC(C)(C)NC[C@H](O)COc1nsnc1N1CCOCC1 [Timolol, timolol maleate] | 5.59 ± 0.13^a |  |  |
|  | 90.18 | CC(C)OC(=O)CCC/C=C\C[C@@H]1[C@@H](CC[C@@H](O)CCc2ccccc2)[C@H](O)C[C@@H]1O [Latanoprost, latanoprost] |  |  |  |
